Results taken from paper PMC4344604, “Synthesis and Biological Evaluation of Carbocyclic Analogues of Pachastrissamine” (Marine Drugs, 2015).
Like-named read-outs stand apart in the source and are kept apart here.

How the values were obtained:
[1] = biological target: T1, SphK1 (Homo sapiens, UniProt Q9NYA1); test: ADP-Glo kinase assay; format: biochemical
T1 construct: commercial enzyme from BPS Bioscience; human given only for the docking structure 3VZB

[2] = biological target: T2, SphK2 (Homo sapiens, UniProt Q9NRA0); test: ADP-Glo kinase assay; format: biochemical
T2 construct: commercial enzyme from BPS Bioscience
T2 sequence (Q9NRA0 1-654): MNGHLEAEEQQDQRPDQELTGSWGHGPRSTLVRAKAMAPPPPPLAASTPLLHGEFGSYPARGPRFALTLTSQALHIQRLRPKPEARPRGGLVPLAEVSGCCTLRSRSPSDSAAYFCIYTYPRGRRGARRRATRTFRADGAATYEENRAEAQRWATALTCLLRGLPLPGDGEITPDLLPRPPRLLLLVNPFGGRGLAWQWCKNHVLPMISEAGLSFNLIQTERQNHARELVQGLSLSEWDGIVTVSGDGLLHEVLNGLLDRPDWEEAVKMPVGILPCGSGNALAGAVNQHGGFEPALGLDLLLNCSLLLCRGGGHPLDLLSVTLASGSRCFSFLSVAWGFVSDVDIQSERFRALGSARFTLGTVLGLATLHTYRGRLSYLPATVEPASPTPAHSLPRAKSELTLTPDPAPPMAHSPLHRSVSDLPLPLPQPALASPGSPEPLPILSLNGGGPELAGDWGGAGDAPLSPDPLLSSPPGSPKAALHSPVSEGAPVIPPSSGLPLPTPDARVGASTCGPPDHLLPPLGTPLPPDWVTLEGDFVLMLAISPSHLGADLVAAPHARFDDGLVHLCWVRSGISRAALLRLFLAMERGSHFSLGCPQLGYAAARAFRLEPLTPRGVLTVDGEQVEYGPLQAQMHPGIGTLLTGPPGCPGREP
Excerpt: ADP-Glo kinase assay on SphK2

T1 sequence (Q9NYA1 whole entry): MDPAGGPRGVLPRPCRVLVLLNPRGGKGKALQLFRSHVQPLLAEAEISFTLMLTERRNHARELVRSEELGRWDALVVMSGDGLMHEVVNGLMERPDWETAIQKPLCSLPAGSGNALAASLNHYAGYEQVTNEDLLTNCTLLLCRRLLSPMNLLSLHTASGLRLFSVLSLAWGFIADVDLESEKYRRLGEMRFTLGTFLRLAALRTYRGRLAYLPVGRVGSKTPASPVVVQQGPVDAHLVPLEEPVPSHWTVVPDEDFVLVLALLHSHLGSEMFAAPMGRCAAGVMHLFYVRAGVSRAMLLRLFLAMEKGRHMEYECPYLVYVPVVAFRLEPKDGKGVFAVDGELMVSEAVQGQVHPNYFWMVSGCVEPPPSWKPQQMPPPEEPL

SMILES | IC50 [1] [µM] | IC50 [2] [µM] | IC50 ([2]; 1 µM sphingosine, 150 µM ATP, 5 mM MgCl2, pH 7.2, 1% DMSO, 1 h, room temperature) [µM]
CCCCCCCCCCCC[C@@H]1CC[C@H](N)[C@@H]1O [4a, (1R,2S,5R)-2-Amino-5-dodecylcyclopentan-1-ol] | 58.2 | > 100 | –
CCCCCCCCCCCCCC[C@@H]1CC[C@H](N)[C@@H]1O [4b, (1R,2S,5R)-2-Amino-5-tetradecylcyclopentan-1-ol] | 7.5 | 20.1 | –
CCCCCCCCCCCCCCCC[C@@H]1CC[C@H](N)[C@@H]1O [4c, (1R,2S,5R)-2-Amino-5-hexadecylcyclopentan-1-ol] | 41.3 | > 100 | –
CCCCCCCCCCCCC/C=C/[C@@H](O)[C@H](CO)N(C)C [N,N-dimethylsphingosine] | – | – | 19.9
CCCCCCCCCCCCCC[C@@H]1OC[C@H](N)[C@@H]1O [compound 1, pachastrissamine] | 12 | 41.8 | –
